{
  "source": "patent US20120157453A1",
  "about": "“RAF INHIBITOR COMPOUNDS AND METHODS OF USE THEREOF” (GENENTECH, INC., priority 2009, published 2012)",
  "key": {"V600E full-length B-Raf": {"molecular_target": "T1, V600E full-length B-Raf (Homo sapiens, UniProt P15056, V600E)", "T1 construct": "1 μM FSBA-MEK and 20 nM V600E full-length B-Raf; made in house; host or cells: Sf9 insect cells (baculovirus)", "T1 sequence (P15056 whole entry V600E)": "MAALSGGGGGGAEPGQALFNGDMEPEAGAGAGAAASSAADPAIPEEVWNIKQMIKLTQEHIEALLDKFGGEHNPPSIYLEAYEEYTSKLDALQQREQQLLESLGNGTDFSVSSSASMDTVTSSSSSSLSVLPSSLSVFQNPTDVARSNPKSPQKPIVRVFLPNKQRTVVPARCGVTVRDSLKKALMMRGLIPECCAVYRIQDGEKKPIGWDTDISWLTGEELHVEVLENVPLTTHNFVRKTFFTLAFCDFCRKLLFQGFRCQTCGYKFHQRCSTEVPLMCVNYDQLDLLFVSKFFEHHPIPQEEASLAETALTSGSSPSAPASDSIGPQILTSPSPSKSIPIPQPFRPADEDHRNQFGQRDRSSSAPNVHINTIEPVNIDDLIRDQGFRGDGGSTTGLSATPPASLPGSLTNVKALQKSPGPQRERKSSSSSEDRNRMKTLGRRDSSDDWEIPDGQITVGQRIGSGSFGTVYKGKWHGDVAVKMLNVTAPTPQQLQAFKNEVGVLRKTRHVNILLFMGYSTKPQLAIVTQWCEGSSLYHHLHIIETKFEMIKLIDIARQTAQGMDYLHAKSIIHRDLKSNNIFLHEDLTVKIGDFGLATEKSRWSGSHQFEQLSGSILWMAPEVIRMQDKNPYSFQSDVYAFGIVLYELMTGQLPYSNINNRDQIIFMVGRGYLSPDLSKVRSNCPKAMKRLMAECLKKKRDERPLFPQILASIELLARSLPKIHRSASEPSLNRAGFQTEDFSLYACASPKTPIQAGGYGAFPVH", "assay": "B-Raf IC50 assay (incorporation of 33P phosphate into FSBA-modified MEK)", "type": "biochemical", "text": "Determining the activity of Raf in the sample is possible by a number of direct and indirect detection methods (US 2004/0082014). Activity of human recombinant B-Raf protein may be assessed in vitro by assay of the incorporation of radio labeled phosphate to recombinant MAP kinase (MEK), a known physiologic substrate of B-Raf, according to US 2004/0127496 and WO 03/022840. The activity/inhibition of V600E full-length B-Raf was estimated by measuring the incorporation of radio labeled phosphate from [γ-^33P]ATP into FSBA-modified wild-type MEK (see Example A).\nActivity of human recombinant B-Raf protein may be assessed in vitro by assay of the incorporation of radio labeled phosphate to recombinant MAP kinase (MEK), a known physiologic substrate of B-Raf, according to US 2004/0127496 and WO 03/022840. Catalytically active human recombinant B-Raf protein is obtained by purification from sf9 insect cells infected with a human B-Raf recombinant baculovirus expression vector.\nThe activity/inhibition of V600E full-length B-Raf was estimated by measuring the incorporation of radio labeled phosphate from [γ-^33P]ATP into FSBA-modified wild-type MEK. The 30-μL assay mixtures contained 25 mM Na Pipes, pH 7.2, 100 mM KCl, 10 mM MgCl2, 5 mM β-glycerophosphate, 100 μM Na Vanadate, 4 μM ATP, 500 nCi [γ-^33P]ATP, 1 μM FSBA-MEK and 20 nM V600E full-length B-Raf. Incubations were carried out at 22° C. in a Costar 3365 plate (Corning). Prior to the assay, the B-Raf and FSBA-MEK were preincubated together in assay buffer at 1.5× (20 μL of 30 nM and 1.5 μM, respectively) for 15 minutes, and the assay was initiated by the addition of 10 μL of 10 μM ATP. Following the 60-minute incubation, the assay mixtures were quenched by the addition of 100 μL of 25% TCA, the plate was mixed on a rotary shaker for 1 minute, and the product was captured on a Perkin-Elmer GF/B filter plate using a Tomtec Mach III Harvester. After sealing the bottom of the plate, 35 μL of Bio-Safe II (Research Products International) scintillation cocktail were added to each well and the plate was top-sealed and counted in a Topcount NXT (Packard)."}, "[1]": {"test_system": "basal ERK1/2 phosphorylation in Malme-3M cells", "assay": "Cellular ERK 1/2 phosphorylation assay", "type": "cell-based", "settings": "Homo sapiens, 1 h, pERK normalized to total ERK", "experimental": "Inhibition of basal ERK1/2 phosphorylation was determined by the following in vitro […], which comprises incubating cells with a compound of Formula II for 1 hour and quantifying the fluorescent pERK signal on fixed cells and normalizing to total ERK signal.\nMaterials and Methods: Malme-3M cells were obtained from ATCC and grown in RPMI-1640 supplemented with 10% fetal bovine serum. Cells were plated in 96-well plates at 24,000 cells/well and allowed to attach for 16-20 hours at 37° C., 5% CO2. The media was removed, and DMSO-diluted compounds were added in RPMI-1640 at a final concentration of 1% DMSO. The cells were incubated with the compounds for 1 hour at 37° C., 5% CO2. The cells were washed with PBS and fixed in 3.7% formaldehyde in PBS for 15 minutes. This was followed by washing in PBS/0.05% Tween20 and permeabilizing in −20° C. 100% MeOH for 15 minutes. Cells were washed in PBS/0.05% Tween20 then blocked in Odyssey blocking buffer (LI-COR Biosciences) for 1 hour. Antibodies to phosphorylated ERK (1:400, Cell Signaling #9106, monoclonal) and total ERK (1:400, Santa Cruz Biotechnology #sc-94, polyclonal) were added to the cells and incubated 16-20 hours at 4° C. After washing with PBS/0.05% Tween20, the cells were incubated with fluorescently-labeled secondary antibodies (1:1000 goat anti-rabbit IgG-IRDye800, Rockland and 1:500 goat anti-mouse IgG-Alexa Fluor 680, Molecular Probes) for an additional hour. Cells were then washed and analyzed for fluorescence at both wavelengths using the Odyssey Infrared Imaging System (LI-COR Biosciences). Phosphorylated ERK signal was normalized to total ERK signal."}, "[2]": {"settings": "B-Raf V600E, bound less than 1 μM, read-out: IC50"}, "[3]": {"settings": "Example A assay, 4 μM ATP, 20 nM enzyme, 60-minute incubation, read-out: BRAF V600E IC50"}},
  "note": "Read-outs that look alike come from different tables or passages of the source.",
  "data": [
    {"smiles": "CCCS(=O)(=O)Nc1ccc(F)c(NC(=O)Nc2ncnc3[nH]ccc23)c1F", "note": "[Example 12, Propane-1-sulfonic acid {2,4-difluoro-3-[3-(7H-pyrrolo[2,3-d]pyrimidin-4-yl)-ureido]-phenyl}-amide]", "values": [
      {"measurement": "IC50", "setting": "V600E full-length B-Raf; [2]", "value": "< 1000", "unit": "nM"},
      {"measurement": "IC50", "setting": "V600E full-length B-Raf; [3]", "value": 56.2, "unit": "nM"},
      {"measurement": "IC50", "setting": "[1]; bound less than 500 nM", "value": "< 500", "unit": "nM"},
      {"measurement": "IC50", "setting": "[1]; bound less than 1 μM", "value": "< 1000", "unit": "nM"}
    ]},
    {"smiles": "CCCS(=O)(=O)Nc1ccc(Cl)c(NC(=O)Nc2ncnc3oc(C)c(C)c23)c1F", "note": "[Example 21, Propane-1-sulfonic acid {4-chloro-3-[3-(5,6-dimethyl-furo[2,3-d]pyrimidin-4-yl)-ureido]-2-fluoro-phenyl}-amide]", "values": [
      {"measurement": "IC50", "setting": "V600E full-length B-Raf; [2]", "value": "< 1000", "unit": "nM"},
      {"measurement": "IC50", "setting": "V600E full-length B-Raf; [3]", "value": 90.8, "unit": "nM"},
      {"measurement": "IC50", "setting": "[1]", "value": 522, "unit": "nM"},
      {"measurement": "IC50", "setting": "[1]; bound less than 1 μM", "value": "< 1000", "unit": "nM"}
    ]},
    {"smiles": "CCCS(=O)(=O)Nc1ccc(F)c(NC(=O)Nc2ncnc3[nH]cnc23)c1F", "note": "[Example 13, Propane-1-sulfonic acid {2,4-difluoro-3-[3-(9H-purin-6-yl)-ureido]-phenyl}-amide]", "values": [
      {"measurement": "IC50", "setting": "V600E full-length B-Raf; [2]", "value": "< 1000", "unit": "nM"},
      {"measurement": "IC50", "setting": "V600E full-length B-Raf; [3]", "value": 4.7, "unit": "nM"},
      {"measurement": "IC50", "setting": "[1]; bound less than 500 nM", "value": "< 500", "unit": "nM"},
      {"measurement": "IC50", "setting": "[1]; bound less than 1 μM", "value": "< 1000", "unit": "nM"}
    ]}
  ]
}
